According to US8492388B2 (priority 2008, dated 2013):
Like-named read-outs stand apart in the source and are kept apart here.

Assay: Measurement of logP values by HPLC on reversed phase columns (EEC directive 79/831 Annex V.A8)
Details: for logp: HPLC reversed phase, pH 2,7, 0.1% formic acid in water / acetonitrile gradient

Compound | chromatographic logP | logp | chromatographic logP (pH 2.7)
COC(=O)c1cccc(CCl)c1 [3-(chloromethyl)benzoate, methyl 3-(chloromethyl)benzoate] | 2.64 | – | –
COCc1cccc(C(=O)O)c1 [3-(methoxymethyl)benzoic acid] | 1.33 | – | –
Cn1nnnc1C(=O)c1cccc(OC(F)(F)F)c1 [(1-methyl-1H-tetrazol-5-yl)[3-(trifluoromethoxy)phenyl]methanone] | 2.96 | – | –
Cn1nnnc1C(=NOCc1cccc(N)n1)c1cccc(OC(F)(F)F)c1 [Example 5] | – | 1.69 | –
C=CCCOC(=O)Nc1cccc(CON=C(c2cccc(OC(F)(F)F)c2)c2nnnn2C)n1 [Example 8] | – | 4.2 | –
C=CCCOC(=O)Nc1nc(CON=C(c2cccc(SC)c2)c2nnnn2C)cs1 [Example 21] | – | 3.64 | –
CN(C)c1cccc(C(=NOCc2cccc(N)n2)c2nnnn2C)c1 [Example 22, 6-{[({[3-(dimethylamino)phenyl](1-methyl-1H-tetrazol-5-yl)methylene}amino)oxy]methyl}pyridin-2-amine] | – | – | 1.19
C#CCCOC(=O)Nc1cccc(CON=C(c2cccc(N(C)C)c2)c2nnnn2C)n1 [Example 23] | – | 3.21 | –
C=CCCOC(=O)Nc1cccc(CON=C(c2cccc(N(C)C)c2)c2nnnn2C)n1 [Example 24] | – | 3.64 | –
CN(C)c1cccc(C(=NOCc2cccc(NC(=O)C(F)(F)Oc3ccccc3)n2)c2nnnn2C)c1 [Example 30, N-(6-{[({[3-(dimethylamino)phenyl](1-methyl-1H-tetrazol-5-yl)methylene}amino)oxy]methyl}pyridin-2-yl)-2,2-difluoro-2-phenoxyacetamide] | 4.14 | – | 4.14
CON(C)C(=O)Nc1cccc(CON=C(c2cccc(N(C)C)c2)c2nnnn2C)n1 [Example 31] | – | 2.71 | –
COCc1cccc(C(=NOCc2cccc(NC(=O)OC(C)(C)C)n2)c2nnnn2C)c1 [Example 32, tert-butyl (6-{[({[3-(methoxymethyl)phenyl](1-methyl-1H-tetrazol-5-yl)methylene}amino)oxy]methyl}pyridin-2-yl)carbamate] | 3.71 | – | 3.71
CC#CCOC(=O)Nc1cccc(CON=C(c2cccc(COC)c2)c2nnnn2C)n1 [Example 33] | – | 3.21 | –
CCCCCOC(=O)Nc1cccc(CON=C(c2cccc(COC)c2)c2nnnn2C)n1 [Example 38] | – | 4.18 | –
Cn1nnnc1C(=NOCc1csc(N)n1)c1cccc(OC(F)(F)F)c1 [Example 46, 4-{[({(1-methyl-1H-tetrazol-5-yl)[3-(trifluoromethoxy)phenyl]methylene}amino)oxy]methyl}-1,3-thiazol-2-amine] | 2.1 | – | 2.1
Cn1nnnc1C(=NOCc1csc(NC(=O)COc2ccccc2)n1)c1cccc(OC(F)(F)F)c1 [Example 53, N-(4-{[({(1-methyl-1H-tetrazol-5-yl)[3-(trifluoromethoxy)phenyl]methylene}amino)oxy]methyl}-1,3-thiazol-2-yl)-2-phenoxyacetamide] | 3.99 | – | 3.99
Cn1nnnc1C(=NO)c1cccc(OC(F)(F)F)c1 [N-hydroxy-1-(1-methyl-1H-tetrazol-5-yl)-1-[3-(trifluoromethoxy)phenyl]methanimine] | 2.37 | – | –
COCc1cccc(C(=NO)c2nnnn2C)c1 [N-hydroxy-1-[3-(methoxymethyl)phenyl]-1-(1-methyl-1H-tetrazol-5-yl)methanimine] | 1.54 | – | –
COCc1cccc(C(=O)N(C)OC)c1 [N-methoxy-3-(methoxymethyl)-N-methylbenzamide] | 1.43 | – | –
CON(C)C(=O)c1cccc(OC(F)(F)F)c1 [N-methoxy-N-methyl-3-(trifluoromethoxy)benzamide] | 2.41 | – | –
COCc1cccc(C(=O)c2nnnn2C)c1 [[3-(methoxymethyl)phenyl](1-methyl-1H-tetrazol-5-yl)methanone] | 2.01 | – | –
